Laboratory results taken from the SangsterLogP compilation.

Test: method code SF-HPLC, from DOI: 10.1002/qsar.200300824

First: O=c1cc(C2=NOS(=O)N2c2ccccc2)c2ccccc2o1 (stereo not drawn)
Second: O=c1cc(C2=NOCN2c2ccccc2)c2ccccc2o1
The logP of the first is lower: 2.16 for the first, 2.45 for the second.

Going from `O=c1oc2ccccc2c(C(CCO)=NO)c1Cl` to `O=c1oc2ccccc2c(C(=NO)NC2CCCCC2)c1Cl`, the logP rises from 0.22 to 2.78.

Compared with `O=c1cc(-c2noc(-c3ccccc3)n2)c2ccccc2o1`, `COc1ccc(-c2nc(-c3cc(=O)oc4ccccc34)no2)cc1` is lower in logP: 3.22 for the first, 2.98 for the second.

Compared with `O=c1cc(C=NNc2ccccc2)c2ccccc2o1`, `O=c1oc2ccccc2c(C(=NO)Nc2ccccc2)c1Cl` is lower in logP: 3.63 for the first, 2.58 for the second.

`Cc1ccc(NC(=NO)c2c(Cl)c(=O)oc3ccccc23)cc1` and `COc1ccc(-c2noc(-c3cc(=O)oc4ccccc34)n2)cc1` are within 0.2 log units of each other in logP: 2.89 for the first, 3.07 for the second.

`O=c1cc(-c2ncon2)c2ccccc2o1` and `Cc1nc(-c2cc(=O)oc3ccccc23)no1` are within 0.2 log units of each other in logP: 1.95 for the first, 2.12 for the second.

`CC1NC(c2cc(=O)oc3ccccc23)=NO1` (stereo not drawn) and `O=c1cc(C2=NOCN2)c2ccccc2o1` are within 0.2 log units of each other in logP: 1.93 for the first, 1.98 for the second.

Going from `COc1ccc(C2=NOC(c3cc(=O)oc4ccccc34)O2)cc1` (stereo not drawn) to `CC1ON=C(c2cc(=O)oc3ccccc23)N1c1ccccc1` (stereo not drawn), the logP falls from 3.04 to 2.7.

Going from `O=c1cc(-c2noc(=S)n2-c2ccccc2)c2ccccc2o1` to `CC(=O)ON=C(N)c1cc(=O)oc2ccccc12`, the logP falls from 3.03 to 1.
